These results are taken from article PMC7224190, “Pharmacological inhibition of PRMT7 links arginine monomethylation to the cellular stress response” (Nature Communications, 2020).

What all share (assay): biochemical
Holding throughout (design): radiometric methyltransferase selectivity assay with tritiated SAM, per cent activity
What all share (details): read-out: % of control remaining

The target of one experiment is ASH1L (Homo sapiens, UniProt Q9NR48). The gist of the method:
(§1)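 Radiometric methyltransferase assays with ³H-SAM and substrate near apparent Km, compound tested at 1 and 10 μM. Methyl incorporation into biotinylated substrate read by scintillation proximity after guanidine quench; no-compound = 100%, no-enzyme = 0% activity.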

In another experiment the target is DOT1L (Homo sapiens, UniProt Q8TEK3). Summed up: as §1
The target of another experiment is T1, G9A (Homo sapiens, UniProt Q96KQ7).
T1 construct: gene EHMT2
T1 sequence (Q96KQ7 1-1210): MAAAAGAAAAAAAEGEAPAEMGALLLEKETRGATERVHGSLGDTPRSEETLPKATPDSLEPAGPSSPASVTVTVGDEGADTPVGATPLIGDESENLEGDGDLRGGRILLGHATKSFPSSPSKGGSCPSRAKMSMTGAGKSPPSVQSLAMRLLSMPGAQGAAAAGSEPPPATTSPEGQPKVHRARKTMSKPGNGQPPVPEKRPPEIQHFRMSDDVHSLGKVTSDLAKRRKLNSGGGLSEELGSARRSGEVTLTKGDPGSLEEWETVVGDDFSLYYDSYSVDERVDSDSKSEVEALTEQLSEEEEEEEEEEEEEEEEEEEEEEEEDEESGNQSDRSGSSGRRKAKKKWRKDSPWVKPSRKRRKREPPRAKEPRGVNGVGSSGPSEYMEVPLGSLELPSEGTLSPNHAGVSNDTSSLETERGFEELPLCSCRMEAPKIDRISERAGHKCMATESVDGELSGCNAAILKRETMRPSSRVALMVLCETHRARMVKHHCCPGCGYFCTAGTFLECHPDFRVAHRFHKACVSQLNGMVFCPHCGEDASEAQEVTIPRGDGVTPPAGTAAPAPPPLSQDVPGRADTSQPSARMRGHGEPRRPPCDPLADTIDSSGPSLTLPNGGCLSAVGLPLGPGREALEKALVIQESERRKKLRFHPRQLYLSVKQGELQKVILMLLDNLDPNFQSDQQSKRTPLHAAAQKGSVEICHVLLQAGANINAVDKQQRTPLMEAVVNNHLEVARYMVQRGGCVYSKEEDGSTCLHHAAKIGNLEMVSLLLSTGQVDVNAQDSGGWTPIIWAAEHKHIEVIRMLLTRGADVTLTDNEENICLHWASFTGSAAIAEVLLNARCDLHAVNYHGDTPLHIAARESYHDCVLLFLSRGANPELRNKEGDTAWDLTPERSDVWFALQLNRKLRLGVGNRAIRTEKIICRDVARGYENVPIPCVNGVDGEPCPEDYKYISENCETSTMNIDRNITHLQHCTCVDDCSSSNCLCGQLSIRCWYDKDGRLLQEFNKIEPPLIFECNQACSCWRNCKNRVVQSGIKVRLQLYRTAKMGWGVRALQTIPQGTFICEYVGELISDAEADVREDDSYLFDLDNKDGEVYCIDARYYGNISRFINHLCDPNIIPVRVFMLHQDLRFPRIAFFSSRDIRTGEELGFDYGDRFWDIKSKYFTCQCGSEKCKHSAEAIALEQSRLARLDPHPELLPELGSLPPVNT
The gist of the method: as §1

The target in the next experiment is T2, MLL3 (Homo sapiens, UniProt Q8NEZ4).
T2 construct: gene KMT2C
Summed up:
as §1

For a further experiment, the target named is PRC2-EZH1 (Homo sapiens, UniProt Q92800). The gist of the method:
as §1

In a further experiment the target is PRMT5-MEP50 (Homo sapiens, UniProt O14744). Summed up: as §1
The target in a further experiment is SMYD2 (Homo sapiens, UniProt Q9NRG4). The gist of the method: as §1

Molecules are shown by their SMILES.

Sequence of DOT1L (Q8TEK3 whole entry): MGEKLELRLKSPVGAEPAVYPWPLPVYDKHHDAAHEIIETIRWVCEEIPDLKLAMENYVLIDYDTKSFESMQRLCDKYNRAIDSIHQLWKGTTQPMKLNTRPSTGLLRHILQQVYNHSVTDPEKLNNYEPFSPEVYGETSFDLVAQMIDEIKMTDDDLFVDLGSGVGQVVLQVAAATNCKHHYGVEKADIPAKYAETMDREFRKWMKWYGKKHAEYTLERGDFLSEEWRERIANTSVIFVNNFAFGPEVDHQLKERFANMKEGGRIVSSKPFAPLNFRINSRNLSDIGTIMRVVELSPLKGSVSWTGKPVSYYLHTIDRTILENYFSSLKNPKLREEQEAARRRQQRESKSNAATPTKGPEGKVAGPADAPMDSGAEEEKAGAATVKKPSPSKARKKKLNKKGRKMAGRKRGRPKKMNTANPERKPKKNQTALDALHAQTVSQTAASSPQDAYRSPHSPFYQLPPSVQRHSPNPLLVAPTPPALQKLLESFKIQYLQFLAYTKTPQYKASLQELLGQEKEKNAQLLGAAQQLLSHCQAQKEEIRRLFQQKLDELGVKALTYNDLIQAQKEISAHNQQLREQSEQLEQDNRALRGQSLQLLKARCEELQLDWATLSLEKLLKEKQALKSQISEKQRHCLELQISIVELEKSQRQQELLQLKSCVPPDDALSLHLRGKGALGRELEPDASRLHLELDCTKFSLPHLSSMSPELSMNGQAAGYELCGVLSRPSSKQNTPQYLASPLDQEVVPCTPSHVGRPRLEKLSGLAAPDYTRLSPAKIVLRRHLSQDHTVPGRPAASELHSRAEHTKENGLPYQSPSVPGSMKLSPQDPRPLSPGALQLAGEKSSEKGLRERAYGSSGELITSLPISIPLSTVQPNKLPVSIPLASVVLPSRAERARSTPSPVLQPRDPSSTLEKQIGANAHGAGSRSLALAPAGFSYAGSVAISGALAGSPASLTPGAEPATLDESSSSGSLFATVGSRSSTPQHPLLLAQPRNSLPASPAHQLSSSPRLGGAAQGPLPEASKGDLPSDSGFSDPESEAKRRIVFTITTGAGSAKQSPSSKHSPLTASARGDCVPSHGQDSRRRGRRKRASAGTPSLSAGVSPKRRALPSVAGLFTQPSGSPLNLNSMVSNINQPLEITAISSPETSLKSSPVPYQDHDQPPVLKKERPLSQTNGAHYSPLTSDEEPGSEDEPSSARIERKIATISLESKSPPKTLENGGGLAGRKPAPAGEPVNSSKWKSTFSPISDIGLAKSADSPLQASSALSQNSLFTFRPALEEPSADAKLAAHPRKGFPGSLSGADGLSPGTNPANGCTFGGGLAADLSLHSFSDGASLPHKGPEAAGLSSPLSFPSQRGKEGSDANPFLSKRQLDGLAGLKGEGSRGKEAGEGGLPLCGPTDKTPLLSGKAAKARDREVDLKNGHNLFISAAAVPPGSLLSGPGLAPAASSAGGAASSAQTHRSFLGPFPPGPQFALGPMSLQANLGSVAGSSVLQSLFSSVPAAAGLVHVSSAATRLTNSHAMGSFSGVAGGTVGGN
Sequence of PRC2-EZH1 (Q92800 whole entry): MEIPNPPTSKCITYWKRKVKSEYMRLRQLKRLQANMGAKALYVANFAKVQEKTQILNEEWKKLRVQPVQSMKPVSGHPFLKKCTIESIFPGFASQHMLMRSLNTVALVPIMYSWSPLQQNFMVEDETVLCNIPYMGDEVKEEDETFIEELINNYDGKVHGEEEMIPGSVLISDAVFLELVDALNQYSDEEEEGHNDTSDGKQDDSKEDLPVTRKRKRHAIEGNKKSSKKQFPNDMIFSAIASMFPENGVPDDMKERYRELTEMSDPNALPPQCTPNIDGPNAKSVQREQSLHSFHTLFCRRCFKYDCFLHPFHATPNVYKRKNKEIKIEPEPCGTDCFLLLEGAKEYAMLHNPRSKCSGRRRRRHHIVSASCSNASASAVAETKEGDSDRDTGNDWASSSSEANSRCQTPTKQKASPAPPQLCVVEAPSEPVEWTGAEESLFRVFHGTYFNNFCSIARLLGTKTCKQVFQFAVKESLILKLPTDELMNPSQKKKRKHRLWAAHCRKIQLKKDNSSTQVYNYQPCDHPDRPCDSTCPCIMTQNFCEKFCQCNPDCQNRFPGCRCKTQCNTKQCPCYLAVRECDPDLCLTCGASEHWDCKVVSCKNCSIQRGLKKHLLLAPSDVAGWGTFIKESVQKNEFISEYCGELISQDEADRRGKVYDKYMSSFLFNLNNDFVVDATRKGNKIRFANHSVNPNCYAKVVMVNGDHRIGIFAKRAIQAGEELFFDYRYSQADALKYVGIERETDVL
Sequence of PRC2-EZH1 (O75530 whole entry partner): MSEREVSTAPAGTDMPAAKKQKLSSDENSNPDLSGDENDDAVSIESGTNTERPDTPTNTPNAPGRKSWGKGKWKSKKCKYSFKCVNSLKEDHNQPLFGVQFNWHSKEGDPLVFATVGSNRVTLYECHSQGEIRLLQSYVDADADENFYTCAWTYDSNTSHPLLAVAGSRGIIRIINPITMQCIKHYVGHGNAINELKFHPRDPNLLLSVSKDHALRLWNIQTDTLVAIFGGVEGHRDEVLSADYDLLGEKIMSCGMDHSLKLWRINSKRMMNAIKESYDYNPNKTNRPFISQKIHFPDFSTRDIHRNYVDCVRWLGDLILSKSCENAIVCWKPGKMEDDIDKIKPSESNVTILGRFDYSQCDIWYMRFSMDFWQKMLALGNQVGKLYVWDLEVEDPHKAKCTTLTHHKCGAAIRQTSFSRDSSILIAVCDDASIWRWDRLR
Sequence of PRC2-EZH1 (Q15022 whole entry partner): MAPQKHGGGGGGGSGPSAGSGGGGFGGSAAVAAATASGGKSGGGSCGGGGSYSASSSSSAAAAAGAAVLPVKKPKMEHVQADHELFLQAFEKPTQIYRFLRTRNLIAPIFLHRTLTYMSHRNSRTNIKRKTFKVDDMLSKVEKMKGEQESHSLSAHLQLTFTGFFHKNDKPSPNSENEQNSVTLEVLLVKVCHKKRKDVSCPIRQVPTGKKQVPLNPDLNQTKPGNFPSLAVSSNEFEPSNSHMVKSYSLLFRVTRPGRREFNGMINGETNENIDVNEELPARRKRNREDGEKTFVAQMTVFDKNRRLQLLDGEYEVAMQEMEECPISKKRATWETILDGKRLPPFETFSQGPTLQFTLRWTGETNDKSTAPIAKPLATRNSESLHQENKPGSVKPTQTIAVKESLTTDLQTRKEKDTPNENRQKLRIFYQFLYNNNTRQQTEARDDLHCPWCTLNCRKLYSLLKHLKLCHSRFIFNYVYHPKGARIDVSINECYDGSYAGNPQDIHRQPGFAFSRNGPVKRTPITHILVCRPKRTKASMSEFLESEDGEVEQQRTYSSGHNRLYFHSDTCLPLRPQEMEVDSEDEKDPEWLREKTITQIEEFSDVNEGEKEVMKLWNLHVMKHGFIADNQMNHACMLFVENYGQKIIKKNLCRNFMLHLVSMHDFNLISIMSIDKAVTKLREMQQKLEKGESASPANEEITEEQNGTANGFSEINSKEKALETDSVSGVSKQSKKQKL
Sequence of SMYD2 (Q9NRG4 whole entry): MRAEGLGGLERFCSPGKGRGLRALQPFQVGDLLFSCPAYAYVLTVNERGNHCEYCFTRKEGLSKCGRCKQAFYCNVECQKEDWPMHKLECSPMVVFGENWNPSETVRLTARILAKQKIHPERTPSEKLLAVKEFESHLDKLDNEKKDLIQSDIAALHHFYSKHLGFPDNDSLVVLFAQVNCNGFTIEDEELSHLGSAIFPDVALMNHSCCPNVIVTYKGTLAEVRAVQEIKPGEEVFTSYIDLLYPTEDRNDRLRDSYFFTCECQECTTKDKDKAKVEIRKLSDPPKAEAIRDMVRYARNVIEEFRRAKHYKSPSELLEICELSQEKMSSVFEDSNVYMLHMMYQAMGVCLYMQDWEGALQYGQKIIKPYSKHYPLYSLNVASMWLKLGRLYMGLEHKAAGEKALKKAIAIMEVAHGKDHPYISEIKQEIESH
Sequence of PRMT5-MEP50 (O14744 whole entry): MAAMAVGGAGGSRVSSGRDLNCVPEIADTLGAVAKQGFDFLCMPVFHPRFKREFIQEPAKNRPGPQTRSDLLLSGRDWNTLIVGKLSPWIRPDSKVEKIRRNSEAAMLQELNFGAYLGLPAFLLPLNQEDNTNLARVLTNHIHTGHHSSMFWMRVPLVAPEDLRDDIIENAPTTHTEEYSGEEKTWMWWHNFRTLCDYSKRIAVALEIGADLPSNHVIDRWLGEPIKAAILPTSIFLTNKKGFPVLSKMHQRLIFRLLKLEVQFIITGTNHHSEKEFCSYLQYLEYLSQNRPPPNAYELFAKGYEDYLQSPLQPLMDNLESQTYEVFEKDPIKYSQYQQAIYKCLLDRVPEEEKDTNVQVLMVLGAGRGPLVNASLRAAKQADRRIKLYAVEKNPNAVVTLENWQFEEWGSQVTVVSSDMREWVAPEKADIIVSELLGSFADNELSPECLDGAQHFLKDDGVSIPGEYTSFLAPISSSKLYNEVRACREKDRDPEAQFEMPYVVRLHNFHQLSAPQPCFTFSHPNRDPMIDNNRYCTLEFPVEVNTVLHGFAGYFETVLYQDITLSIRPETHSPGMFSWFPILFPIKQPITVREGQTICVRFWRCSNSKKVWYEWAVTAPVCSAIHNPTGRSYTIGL
Sequence of PRMT5-MEP50 (Q9BQA1 whole entry partner): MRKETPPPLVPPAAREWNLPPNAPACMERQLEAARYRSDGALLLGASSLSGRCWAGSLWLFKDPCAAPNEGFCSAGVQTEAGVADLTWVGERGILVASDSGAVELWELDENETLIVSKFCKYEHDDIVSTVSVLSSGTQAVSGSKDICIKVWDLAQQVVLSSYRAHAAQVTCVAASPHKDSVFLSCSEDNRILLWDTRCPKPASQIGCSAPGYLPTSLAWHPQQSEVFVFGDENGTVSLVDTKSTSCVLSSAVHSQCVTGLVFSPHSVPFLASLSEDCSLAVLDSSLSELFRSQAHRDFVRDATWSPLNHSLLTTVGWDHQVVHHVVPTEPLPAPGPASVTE

Take `CC1(C)O[C@@H]2[C@H](O1)[C@@H](CSCCCCNCc1cccc(-c3ccc(Cl)cc3)c1)O[C@H]2n1cnc2c(N)ncnc21` [SGC8158N]: the remaining activity at 1 µM on ASH1L turned out to be 99%; on DOT1L, 97%; at G9A, 99%; at MLL3, 99%; on PRC2-EZH1 it was 92%; at PRMT5-MEP50, 101%. Moreover, on SMYD2, the remaining activity at 1 µM amounted to 105%. The remaining activity at 10 µM stood at 102% at ASH1L; 95% at DOT1L; 98% at G9A; 100% at MLL3; 93% at PRC2-EZH1; 91% at PRMT5-MEP50. The remaining activity at 10 µM on SMYD2 was 104%.

For the molecule `Nc1ncnc2c1ncn2[C@@H]1O[C@H](CSCCCCNCc2cccc(-c3ccc(Cl)cc3)c2)[C@@H](O)[C@H]1O` [SGC8158], the remaining activity at 1 µM was 96% at ASH1L; 58% at DOT1L; 100% on G9A; 105% at MLL3; 106% at PRC2-EZH1; 15% at PRMT5-MEP50. Besides, the remaining activity at 1 µM at SMYD2 was 101%. In addition, the remaining activity at 10 µM at ASH1L is 97%; on DOT1L, 13%; at G9A, 99%; on MLL3, 105%; at PRC2-EZH1, 100%; on PRMT5-MEP50 it was 2%. Moreover, at SMYD2, the remaining activity at 10 µM worked out at 84%.
